Experimental findings from ChEMBL document CHEMBL1201862, “PubChem BioAssay data set” (2004) are described below.

Some test systems named below: LOX IMVI; HCT-15; SK-MEL-28; T47D; A549; RPMI-8226; OVCAR-4; HT-29; SW-620; Hs-578T; HCT-116; SF-539; NCI-H460; PC-3; EKVX; SK-OV-3; OVCAR-8; HOP-92; HOP-62.
Holding throughout (experiment): DTP human tumour cell line panel, 48 h

The structures appear in SMILES notation.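 Results reflect a 48-hour exposure of cells in 96-well plates to compound at five concentrations. GI50 is the concentration that inhibits growth by half.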 Active and inactive are the calls of the source. Cut-off read from the data, not from the text of the source: active = GI50 up to about 1.1 µM and inactive = higher. Bounds are passed on as bounds.

As a reminder, the GI50 is the concentration that inhibits growth by half. Consider `CC12CCC(Br)C(C)(C)C1CC=C1C(=O)OCC1O2` (stereo not given), for which the GI50 was 9.57 µM (inactive) in the assay on LOX IMVI; 12.1 µM in the assay with HCT-15; 14.8 µM (inactive) in the assay on SK-MEL-28; 15.4 µM (inactive) in the assay on T47D; 23.6 µM (inactive) in the assay on A549; 2.73 µM (inactive) in the assay with RPMI-8226. In addition, the GI50 is 16 µM (inactive) with OVCAR-4; 19 µM (inactive) with HT-29; 16.7 µM (inactive) with SW-620; 10.9 µM (inactive) in the assay with Hs-578T; 12.9 µM (inactive) in the assay on HCT-116; 60.8 µM (inactive) in the assay on SF-539. Moreover, the GI50 was 14.6 µM (inactive) in the assay on NCI-H460; 9.89 µM (inactive) with PC-3; 16.5 µM (inactive) in the assay with EKVX; 9.06 µM (inactive) in the assay with SK-OV-3; 11.6 µM (inactive) with OVCAR-8; 11.9 µM (inactive) in the assay on HOP-92.
Turning to `CCOC(=O)C(NC(=O)c1ccccc1)(Nc1ccc(S(=O)(=O)Nc2cc(C)nc(C)n2)cc1)C(F)(F)F` (stereo not given), the GI50 in the assay on LOX IMVI is > 100 µM (inactive); in the assay on HOP-62, > 100 µM (inactive); in the assay on HCT-15 it was above 100 µM; in the assay with SK-MEL-28, > 100 µM (inactive); in the assay with T47D, > 100 µM (inactive); in the assay with A549, > 100 µM (inactive). Besides, the GI50 in the assay with RPMI-8226 was > 100 µM (inactive); in the assay with OVCAR-4, > 100 µM (inactive); with HT-29, > 100 µM (inactive); in the assay on SW-620 it was 56.1 µM (inactive); with Hs-578T, > 100 µM (inactive); in the assay with HCT-116 it was > 100 µM (inactive). For the same compound, the GI50 with SF-539, with NCI-H460, in the assay with PC-3, in the assay on EKVX, with OVCAR-8 and in the assay with HOP-92 was > 100 µM (inactive) each time.
`O=C1OCC/C1=C/c1ccc(/N=N/c2c(O)ccc3ccccc23)cc1`: the GI50 in the assay with HOP-62 was 21.9 µM (inactive); with HCT-15, 24.9 µM; with SK-MEL-28, 18.9 µM (inactive); with T47D it was 39.4 µM (inactive); with A549, 18.6 µM (inactive); in the assay with RPMI-8226, 21.6 µM (inactive). Also, the GI50 in the assay with OVCAR-4 was 18.6 µM (inactive); in the assay with HT-29 it was 19.4 µM (inactive); in the assay on SW-620 it was 19.2 µM (inactive); in the assay with Hs-578T, 27.2 µM (inactive); in the assay with HCT-116, 17.6 µM (inactive); in the assay on SF-539, 18.4 µM (inactive). For the same compound, the GI50 is 19.7 µM (inactive) in the assay on NCI-H460; 19.9 µM (inactive) with PC-3; 19.1 µM (inactive) in the assay with EKVX; 28.3 µM (inactive) in the assay with SK-OV-3; 26.7 µM (inactive) with OVCAR-8; 27.4 µM (inactive) in the assay on HOP-92.
In the case of `CC1=C(C(=O)N[C@@H](Cc2ccccc2)C(=O)O)N2C(=O)[C@@H](NC(=O)[C@@H](N)CC(C)C)[C@H]2SC1`, the GI50 with LOX IMVI was > 100 µM (inactive); in the assay with HCT-15, above 100 µM; in the assay on SK-MEL-28, > 100 µM (inactive); in the assay with T47D, > 100 µM (inactive); with A549, > 100 µM (inactive); with RPMI-8226, > 100 µM (inactive). Besides, the GI50 with OVCAR-4, in the assay on SW-620, in the assay with Hs-578T, in the assay with SF-539, with NCI-H460 and in the assay with PC-3 was > 100 µM (inactive) in each case. For the same compound, the GI50 with EKVX, in the assay on OVCAR-8 and with HOP-92 was > 100 µM (inactive) throughout.
As for `O=C1CSC2(CC(/C=C/c3ccccc3Br)=NN2c2cccc(S(=O)(=O)O)c2)N1c1nc2ccccc2s1` (stereo not given), the GI50 in the assay on LOX IMVI was > 100 µM (inactive); in the assay on HCT-15, above 100 µM; in the assay on SK-MEL-28, > 100 µM (inactive); with T47D, 27.6 µM (inactive); with A549, > 100 µM (inactive); with RPMI-8226, 44.8 µM (inactive). For the same compound, the GI50 is 75.9 µM (inactive) in the assay with OVCAR-4; > 100 µM (inactive) in the assay with HT-29; > 100 µM (inactive) in the assay on SW-620; > 100 µM (inactive) in the assay on Hs-578T; > 100 µM (inactive) in the assay on HCT-116; > 100 µM (inactive) with SF-539. The GI50 in the assay on NCI-H460 is > 100 µM (inactive); with PC-3 it was > 100 µM (inactive); in the assay on EKVX it was > 100 µM (inactive); with OVCAR-8, > 100 µM (inactive); in the assay with HOP-92, 87.9 µM (inactive).
Take `NC(CCCCP(=O)(O)O)C(=O)O` (stereo not given): the GI50 is > 100 µM (inactive) with LOX IMVI; above 100 µM with HCT-15; > 100 µM (inactive) in the assay with SK-MEL-28; > 100 µM (inactive) in the assay with T47D; > 100 µM (inactive) in the assay on A549; > 100 µM (inactive) in the assay with RPMI-8226. The GI50 with OVCAR-4, in the assay with HT-29, in the assay with SW-620, in the assay with Hs-578T, in the assay on HCT-116 and in the assay with SF-539 was > 100 µM (inactive) throughout. The GI50 with NCI-H460, in the assay on PC-3, in the assay with EKVX, in the assay with SK-OV-3, in the assay with OVCAR-8 and in the assay on HOP-92 was > 100 µM (inactive) each time.
On to `CC(=O)CCC[C@H](C)[C@@H](O)[C@@H]1O[C@H]([C@@]2(C)CCC(=O)O2)C[C@H]1C(=O)O`, for which the GI50 in the assay on LOX IMVI was > 100 µM (inactive); in the assay on HOP-62 it was > 100 µM (inactive); with HCT-15, above 100 µM; with SK-MEL-28, > 100 µM (inactive); in the assay on T47D, > 100 µM (inactive); in the assay with A549, > 100 µM (inactive). For the same compound, the GI50 in the assay with RPMI-8226, in the assay on OVCAR-4, in the assay with HT-29, with SW-620, in the assay on Hs-578T and in the assay with HCT-116 was > 100 µM (inactive) in each case. Moreover, the GI50 in the assay with SF-539, with NCI-H460, in the assay on PC-3, in the assay with EKVX, in the assay on SK-OV-3 and in the assay on OVCAR-8 was > 100 µM (inactive) each time.
As to `COC(=O)C1=C(C)N2[C@H](C(=O)O)CO[C@@]2(C)[C@H](C(=O)OC)[C@H]1c1cccc([N+](=O)[O-])c1`, the GI50 in the assay on HOP-62 is > 100 µM (inactive); in the assay on HCT-15 it was above 100 µM; in the assay on SK-MEL-28 it was > 100 µM (inactive); with T47D, > 100 µM (inactive); in the assay with A549, > 100 µM (inactive); in the assay with RPMI-8226 it was > 100 µM (inactive). Besides, the GI50 in the assay with OVCAR-4, in the assay with HT-29, in the assay with SW-620, in the assay with Hs-578T, in the assay on HCT-116 and in the assay on SF-539 was > 100 µM (inactive) throughout. Moreover, the GI50 in the assay on NCI-H460, in the assay on PC-3, with EKVX, in the assay with SK-OV-3, with OVCAR-8 and in the assay on HOP-92 was > 100 µM (inactive) in each case.
